How the values were obtained:
[1] = biological target: T1, IKKε (Homo sapiens, UniProt Q14164); experiment: TR-FRET enzymatic activity assay, IKKε; type: biochemical; conditions: read-out: IKKϵ IC50; further: full length recombinant IKKε at 0.3 nM
T1 construct: TBK1 and IKKε were expressed and purified as full length recombinant proteins; made in house
T1 sequence (Q14164 1-716): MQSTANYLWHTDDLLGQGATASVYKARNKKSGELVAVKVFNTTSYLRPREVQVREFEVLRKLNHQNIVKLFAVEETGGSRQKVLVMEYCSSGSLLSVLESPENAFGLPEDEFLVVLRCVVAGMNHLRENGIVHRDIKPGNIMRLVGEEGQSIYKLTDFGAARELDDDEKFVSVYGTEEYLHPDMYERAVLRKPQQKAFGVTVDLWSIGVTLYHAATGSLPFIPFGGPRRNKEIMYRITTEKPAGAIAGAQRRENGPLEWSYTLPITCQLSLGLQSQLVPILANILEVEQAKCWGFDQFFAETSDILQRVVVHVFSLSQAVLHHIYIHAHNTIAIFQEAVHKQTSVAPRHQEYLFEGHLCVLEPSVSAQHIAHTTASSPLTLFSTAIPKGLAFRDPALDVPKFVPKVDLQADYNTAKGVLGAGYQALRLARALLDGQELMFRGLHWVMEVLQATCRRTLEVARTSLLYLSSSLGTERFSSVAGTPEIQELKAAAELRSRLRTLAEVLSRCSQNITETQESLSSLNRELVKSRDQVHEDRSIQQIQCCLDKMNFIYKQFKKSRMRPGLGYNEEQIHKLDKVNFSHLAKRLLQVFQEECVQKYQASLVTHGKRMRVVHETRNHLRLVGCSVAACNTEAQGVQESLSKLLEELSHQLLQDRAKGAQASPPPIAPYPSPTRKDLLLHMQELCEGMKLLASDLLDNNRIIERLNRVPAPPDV
How it was run: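 IC50 values are geometric means of at least four determinations, fitted to a four-parameter curve after normalising to 1 μM staurosporine and DMSO. Signal: Eu-cryptate anti-phospho antibody plus 125 nM streptavidin-XL665 on a biotinylated peptide. Full-length recombinant enzyme reacted 240 min, 25 °C, then EDTA-quenched.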

[2] = biological target: T2, TBK1 (Homo sapiens, UniProt Q9UHD2); experiment: TR-FRET enzymatic activity assay, TBK1; type: biochemical; further: full length recombinant TBK1 at 2.5 nM
T2 construct: TBK1 and IKKε were expressed and purified as full length recombinant proteins; made in house
T2 sequence (Q9UHD2 1-729): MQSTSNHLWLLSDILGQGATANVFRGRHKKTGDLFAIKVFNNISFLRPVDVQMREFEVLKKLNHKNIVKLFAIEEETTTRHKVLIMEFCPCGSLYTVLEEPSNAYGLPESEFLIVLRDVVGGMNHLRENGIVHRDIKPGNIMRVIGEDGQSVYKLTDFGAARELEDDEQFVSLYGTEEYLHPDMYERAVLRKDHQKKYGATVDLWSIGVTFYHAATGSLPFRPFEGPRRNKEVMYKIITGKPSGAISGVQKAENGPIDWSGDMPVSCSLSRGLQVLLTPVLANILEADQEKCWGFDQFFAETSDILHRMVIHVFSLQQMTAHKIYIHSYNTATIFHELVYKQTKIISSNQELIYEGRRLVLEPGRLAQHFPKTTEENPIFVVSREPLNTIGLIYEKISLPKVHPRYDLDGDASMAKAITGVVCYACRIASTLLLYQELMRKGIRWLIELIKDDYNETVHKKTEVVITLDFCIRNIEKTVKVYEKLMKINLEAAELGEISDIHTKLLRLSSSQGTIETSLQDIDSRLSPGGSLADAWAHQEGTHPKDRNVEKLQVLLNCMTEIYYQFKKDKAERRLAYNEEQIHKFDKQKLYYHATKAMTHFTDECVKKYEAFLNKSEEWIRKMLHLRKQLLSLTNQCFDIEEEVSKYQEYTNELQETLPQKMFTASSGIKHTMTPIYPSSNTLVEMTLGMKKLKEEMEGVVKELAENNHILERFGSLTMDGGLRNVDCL
How it was run: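 TR-FRET detected phosphorylation of a biotinylated serine/threonine peptide using 125 nM streptavidin XL665 plus europium-labelled anti-phospho antibody. Reactions with full-length recombinant kinase ran 240 min at 25 °C before EDTA quench. Values are geometric-mean IC50s (n ≥ 4) from four-parameter dose-response fits against staurosporine and DMSO controls.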

SMILES	IC50 [1] [µM]	IC50 [2] [µM]
N#Cc1cc(-c2ccnc(NC(=O)[C@@H]3C[C@H]3c3cncnc3)c2)ccc1O[C@H]1CCN(C(=O)CO)C[C@H]1F [Example 149, (1,2-Trans)-N-(4-(3-cyano-4-(((3R,4S)-3-fluoro-1-(2-hydroxyacetyl)piperidin-4-yl)oxy)phenyl)pyridin-2-yl)-2-(pyrimidin-5-yl)cyclopropane-1-carboxamide]	0.0992	0.0159
N#Cc1cc(-c2cc(NC(=O)C3CC3)ncn2)ccc1O[C@H]1CCN(C(=O)[C@@H]2CCC(=O)N2)CC1(F)F [Example 152, N-(6-(3-cyano-4-(((S)-3,3-difluoro-1-((S)-5-oxopyrrolidine-2-carbonyl)piperidin-4-yl)oxy)phenyl)pyrimidin-4-yl)cyclopropanecarboxamide]	0.0533	0.0094
N#CCC(=O)N1CC[C@H](Oc2ccc(-c3cc(NC(=O)C4CC4)ncn3)cc2C#N)C(F)(F)C1 [Example 153, (S)—N-(6-(3-cyano-4-((1-(2-cyanoacetyl)-3,3-difluoropiperidin-4-yl)oxy)phenyl)pyrimidin-4-yl)cyclopropanecarboxamide]	0.14	0.0236
N#Cc1cc(-c2cc(NC(=O)C3CC3)ncn2)ccc1O[C@H]1CCN(C(=O)CCO)CC1(F)F [Example 154, (S)—N-(6-(3-cyano-4-((3,3-difluoro-1-(3-hydroxypropanoyl)piperidin-4-yl)oxy)phenyl)pyrimidin-4-yl)cyclopropanecarboxamide]	0.387	0.0415

Results, then the molecule that gave them:

IC50 [1] [µM]	IC50 [2] [µM]	SMILES
0.0308	0.0161	Cn1cc([C@@H]2C[C@H]2C(=O)Nc2cc(-c3ccc(O[C@H]4CCN(C(=O)[C@@H](O)CO)C[C@H]4F)c(C#N)c3)ncn2)cn1 [Example 146, (1,2-Trans)-N-(6-(3-cyano-4-(((3R,4S)-1-((S)-2,3-dihydroxypropanoyl)-3-fluoropiperidin-4-yl)oxy)phenyl)pyrimidin-4-yl)-2-(1-methyl-1H-pyrazol-4-yl)cyclopropane-1-carboxamide]
0.0365	0.0157	N#Cc1cc(-c2cc(NC(=O)[C@@H]3C[C@H]3c3cccnc3)ncn2)ccc1O[C@H]1CCN(C(=O)CO)C[C@H]1F [Example 147, (1,2-Trans)-N-(6-(3-cyano-4-(((3R,4S)-3-fluoro-1-(2-hydroxyacetyl)piperidin-4-yl)oxy)phenyl)pyrimidin-4-yl)-2-(pyridin-3-yl)cyclopropane-1-carboxamide]
0.0526	0.007	N#Cc1cc(-c2cc(NC(=O)C3CC3)ncn2)ccc1O[C@H]1CCN(C(=O)[C@@H]2COC(=O)N2)CC1(F)F [Example 155, N-(6-(3-cyano-4-(((S)-3,3-difluoro-1-((S)-2-oxooxazolidine-4-carbonyl)piperidin-4-yl)oxy)phenyl)pyrimidin-4-yl)cyclopropanecarboxamide]
0.041	0.0366	Cc1nnc([C@@H]2C[C@H]2C(=O)Nc2cc(-c3ccc(O[C@H]4CCN(C(=O)CO)C[C@H]4F)c(C#N)c3)ccn2)o1 [Example 156, Trans-N-(4-(3-cyano-4-(((3R,4S)-3-fluoro-1-(2-hydroxyacetyl)piperidin-4-yl)oxy)phenyl)pyridin-2-yl)-2-(5-methyl-1,3,4-oxadiazol-2-yl)cyclopropane-1-carboxamide]
0.0047	0.0044	N#Cc1cc(-c2ccnc(NC(=O)C3CC3)c2)ccc1O[C@H]1CCN(C(=O)[C@@H](O)CO)CC1(F)F [Example 157, N-(4-(3-cyano-4-(((S)-1-((S)-2,3-dihydroxypropanoyl)-3,3-difluoropiperidin-4-yl)oxy)phenyl)pyridin-2-yl)cyclopropanecarboxamide]
0.0393	0.0128	C[C@H](N)C(=O)OCC(=O)N1CC[C@H](Oc2ccc(-c3cc(NC(=O)C4CC4)ncn3)cc2C#N)C(F)(F)C1 [Example 159, 2-((S)-4-(2-cyano-4-(6-(cyclopropanecarboxamido)pyrimidin-4-yl)phenoxy)-3,3-difluoropiperidin-1-yl)-2-oxoethyl L-Alaninate]

From patent US10316049B2, “Tank-binding kinase inhibitor compounds” (Gilead Sciences, Inc., priority 2015, dated 2019)
